How the values were obtained:
[1] = test system: EMT-6 syngeneic mouse tumor model (breast cancer); test: Anti-tumor activity, EMT-6 syngeneic mouse tumor model; type: in vivo; details: EMT6, 648 h, Study 2, EMT-6, 160 mpk, D27, read-out: TGI (tumor growth inhibition)
hepatocytes = test: Metabolite analysis in hepatocytes by high-resolution mass spectrometry; type: in vitro ADME; details: preliminary studies
Description: It remains unclear whether halogen substitutions at the indole ring impact the activity and metabolic profiles of the indole compounds described herein.

| Structure (SMILES) | inhibition in vivo at 160 mg/kg [1] [%] | primary metabolites of the indole ring identified (hepatocytes) |
| --- | --- | --- |
| COC(=O)c1csc(C(=O)c2c[nH]c3ccccc23)n1 [ARI-001, ITE] | 75.1 |  |
| CCC(=O)c1csc(C(=O)c2c[nH]c3ccc(F)cc23)n1 [ARI-087, 1-(2-(5-fluoro-1H-indole-3-carbonyl)thiazol-4-yl)propan-1-one] |  | fewer primary metabolites of the indole ring |
| CCC(=O)c1csc(C(=O)c2c[nH]c3cc(F)ccc23)n1 [ARI-143, 1-(2-(6-fluoro-1H-indole-3-carbonyl)thiazol-4-yl)propan-1-one] |  | fewer primary metabolites of the indole ring |

Source: US11891386B2, “Indole compounds and their use” (ARIAGEN, INC., priority 2017, dated 2024)
